Measured values published in EP0908457B1, “3-(1,2-benzisothiazol- and isoxazol-5-Y1)-2,4(1H,3H)-pyrimidinedione or thione and 3-(1,2-benzisothiazol- and isoxazol-5-y1)-4(3H)-pyrimidinone or thione herbicidal agents” (BASF AKTIENGESELLSCHAFT, priority 1997, dated 1999).

Legend:
[1] = tested on: Echinochloa oryzoides (Ard.) Fritsch.; experiment: Preemergence weed control under flooded paddy conditions, ECHORC (Watergrass (Calif.)); format: in vivo; conditions: flooded paddy; on herbicidal effect rating, ECHORC: meaning of each grade not given here
[2] = tested on: Cyperus iria; experiment: Preemergence weed control under flooded paddy conditions, CYPIR (Rice Flatsedge); format: in vivo; conditions: flooded paddy; on herbicidal effect rating, CYPIR: meaning of each grade not given here
[3] = tested on: Cyperus serotinus, Rottb.; experiment: Preemergence weed control under flooded paddy conditions, CYPSE (Flatsedge); format: in vivo; on herbicidal effect rating, CYPSE: meaning of each grade not given here
[4] = tested on: Monochoria vaginalis, Presl.; experiment: Preemergence weed control under flooded paddy conditions, MOOVA (Monochoria); format: in vivo; conditions: flooded paddy; on herbicidal effect rating, MOOVA: meaning of each grade not given here
[5] = tested on: Sagittaria pygmaea, L.; experiment: Preemergence weed control under flooded paddy conditions, SAGPY (Arrowhead (Pygmaea)); format: in vivo; conditions: flooded paddy; on herbicidal effect rating, SAGPY: meaning of each grade not given here
[6] = tested on: Oryza sativa, (L.) Tebonnet; experiment: Rice tolerance to post-transplant applications under flooded paddy conditions (Example 187), ORYSAT (Rice, Tebonnet); on herbicidal effect rating ORYSAT: meaning of each grade not given here
[7] = Rate 0.0320 kg/ha, preemergence, rated 3-4 weeks after treatment
[8] = Rate 0.0620 kg/ha, preemergence, rated 3-4 weeks after treatment
[9] = Rate 0.1250 kg/ha, preemergence, rated 3-4 weeks after treatment
[10] = Rate 0.2500 kg/ha, preemergence, rated 3-4 weeks after treatment
[11] = Rate 0.0313 kg/ha, preemergence, rated three to four weeks after treatment
[12] = Rate 0.0625 kg/ha, preemergence, rated three to four weeks after treatment
[13] = Rate 0.1250 kg/ha, preemergence, rated three to four weeks after treatment
[14] = Rate 0.2500 kg/ha, preemergence, rated three to four weeks after treatment
[15] = Rate 0.1250 kg/ha, rated three to four weeks after treatment
[16] = Rate 0.2500 kg/ha, rated three to four weeks after treatment
[17] = Rate 0.0320 kg/ha, preemergence weeds, rated three to four weeks after treatment
[18] = Rate 0.0620 kg/ha, preemergence weeds, rated three to four weeks after treatment
[19] = Rate 0.1250 kg/ha, preemergence weeds, rated three to four weeks after treatment
[20] = Rate 0.2500 kg/ha, preemergence weeds, rated three to four weeks after treatment
[21] = Rate 0.0320 kg/ha, rated three to four weeks after treatment
[22] = Rate 0.0620 kg/ha, rated three to four weeks after treatment
[23] = Rate 0.0320 kg/ha, preemergence, rated three to four weeks after treatment
[24] = Rate 0.0620 kg/ha, preemergence, rated three to four weeks after treatment
[25] = 0.0313 kg/ha, preemergence weeds, rated three to four weeks after treatment
[26] = 0.0625 kg/ha, preemergence weeds, rated three to four weeks after treatment
[27] = 0.1250 kg/ha, preemergence weeds, rated three to four weeks after treatment
[28] = 0.2500 kg/ha, preemergence weeds, rated three to four weeks after treatment

C#CC(C)OC(=O)C(C)(C)Oc1ccc(C)cc1-c1nsc2ccc(-n3c(=O)cc(C(F)(F)F)n(C)c3=O)cc12 (stereo not drawn) [Example 531, Propionic acid, 2-{{2-{5-[3,6-dihydro-3-methyl-2,6-dioxo-4-(trifluoromethyl)-1(2H)-pyrimidinyl]-1,2-benzisothiazol-3-yl}-p-tolyl}oxy}-2-methyl-, 1-methyl-2-propynyl ester]
0.0: herbicidal effect rating, CYPIR [2, 7] | herbicidal effect rating, CYPIR [2, 8] | herbicidal effect rating, CYPSE [3, 7] | herbicidal effect rating, CYPSE [3, 8] | herbicidal effect rating, SAGPY [5, 7] | herbicidal effect rating, SAGPY [5, 8] | herbicidal effect rating ORYSAT ([6]; Rate 0.0320 kg/ha, rated 3-4 weeks after treatment) | herbicidal effect rating ORYSAT ([6]; Rate 0.0620 kg/ha, rated 3-4 weeks after treatment)
9.0: herbicidal effect rating, ECHORC [1, 7] | herbicidal effect rating, ECHORC [1, 8] | herbicidal effect rating, ECHORC [1, 9] | herbicidal effect rating, ECHORC [1, 10] | herbicidal effect rating, MOOVA [4, 7] | herbicidal effect rating, MOOVA [4, 8] | herbicidal effect rating, MOOVA [4, 9] | herbicidal effect rating, MOOVA [4, 10] | herbicidal effect rating ORYSAT ([6]; Rate 0.2500 kg/ha, rated 3-4 weeks after treatment)
4.0: herbicidal effect rating, CYPIR [2, 9] | herbicidal effect rating, CYPIR [2, 10]
3.0: herbicidal effect rating, CYPSE [3, 9] | herbicidal effect rating, CYPSE [3, 10] | herbicidal effect rating, SAGPY [5, 9] | herbicidal effect rating, SAGPY [5, 10] | herbicidal effect rating ORYSAT ([6]; Rate 0.1250 kg/ha, rated 3-4 weeks after treatment)

C=CCOc1nc(C(F)(F)F)cc(=O)n1-c1ccc2snc(-c3cc(C)ccc3OC)c2c1 [Example 245, 2-(Allyloxy)-3-[3-(6-methoxy-m-tolyl)-1,2-benzisothiazol-5-yl]-6-(trifluoromethyl)-4(3H)-pyrimidinone]
0.0: ECHORC herbicidal effect rating [1, 11] | ECHORC herbicidal effect rating [1, 12] | ECHORC herbicidal effect rating [1, 13] | ECHORC herbicidal effect rating [1, 14] | CYPIR herbicidal effect rating [2, 11] | CYPIR herbicidal effect rating [2, 12] | CYPIR herbicidal effect rating [2, 13] | CYPIR herbicidal effect rating [2, 14] | CYPSE herbicidal effect rating [3, 11] | CYPSE herbicidal effect rating [3, 12] | CYPSE herbicidal effect rating [3, 13] | CYPSE herbicidal effect rating [3, 14] | MOOVA herbicidal effect rating [4, 11] | MOOVA herbicidal effect rating [4, 12] | MOOVA herbicidal effect rating [4, 13] | MOOVA herbicidal effect rating [4, 14] | SAGPY herbicidal effect rating [5, 11] | SAGPY herbicidal effect rating [5, 12] | SAGPY herbicidal effect rating [5, 13] | SAGPY herbicidal effect rating [5, 14] | ORYSAT herbicidal effect rating ([6]; Rate 0.0313 kg/ha, rated three to four weeks after treatment) | ORYSAT herbicidal effect rating ([6]; Rate 0.0625 kg/ha, rated three to four weeks after treatment) | ORYSAT herbicidal effect rating [6, 15] | ORYSAT herbicidal effect rating [6, 16]

CN(O)C(=O)COc1ccccc1-c1nsc2ccc(-n3c(=O)cc(C(F)(F)F)n(C)c3=O)cc12 [Example 336, Acetohydroxamic acid, 2-{o-{5-[3,6-dihydro-3-methyl-2,6-dioxo-4-(trifluoromethyl)-1(2H)-pyrimidinyl]-1,2-benzisothiazol-3-yl}phenoxy}-N-methyl-]
4.5: herbicidal effect rating ORYSAT [6, 22] | herbicidal effect rating ORYSAT [6, 15]
6.5: herbicidal effect rating, ECHORC [1, 17]
9.0: herbicidal effect rating, ECHORC [1, 18] | herbicidal effect rating, ECHORC [1, 19] | herbicidal effect rating, ECHORC [1, 20] | herbicidal effect rating, CYPIR [2, 20] | herbicidal effect rating, MOOVA [4, 17] | herbicidal effect rating, MOOVA [4, 18] | herbicidal effect rating, MOOVA [4, 19] | herbicidal effect rating, MOOVA [4, 20] | herbicidal effect rating, SAGPY [5, 20] | herbicidal effect rating ORYSAT [6, 16]
0.0: herbicidal effect rating, CYPIR [2, 17] | herbicidal effect rating, CYPSE [3, 17] | herbicidal effect rating, CYPSE [3, 18] | herbicidal effect rating, SAGPY [5, 17] | herbicidal effect rating, SAGPY [5, 18]
4.0: herbicidal effect rating, CYPIR [2, 19]
1.0: herbicidal effect rating, CYPIR [2, 18] | herbicidal effect rating, SAGPY [5, 19]
2.0: herbicidal effect rating, CYPSE [3, 19] | herbicidal effect rating ORYSAT [6, 21]
3.0: herbicidal effect rating, CYPSE [3, 20]

Cn1c(C(F)(F)F)cc(=O)n(-c2ccc3snc(C(=O)NS(=O)(=O)c4ccc(Cl)cc4)c3c2)c1=O [Example 356, 1,2-Benzisothiazole-3-carboxamide, N-[(p-chlorophenyl)sulfonyl]-5-[3,6-dihydro-3-methyl-2,6-dioxo-4-(trifluoromethyl)-1(2H)-pyrimidinyl]-]
4.5: herbicidal effect rating, SAGPY [5, 23] | herbicidal effect rating, SAGPY [5, 24] | herbicidal effect rating ORYSAT [6, 15]
0.0: herbicidal effect rating, CYPSE [3, 23] | herbicidal effect rating, CYPSE [3, 24]
0.5: herbicidal effect rating ORYSAT [6, 21]
8.0: herbicidal effect rating, SAGPY [5, 14]
3.5: herbicidal effect rating, ECHORC [1, 23]
2.5: herbicidal effect rating ORYSAT [6, 22]
7.5: herbicidal effect rating, MOOVA [4, 23]
2.0: herbicidal effect rating ORYSAT [6, 16]
9.0: herbicidal effect rating, ECHORC [1, 14] | herbicidal effect rating, CYPIR [2, 24] | herbicidal effect rating, CYPIR [2, 13] | herbicidal effect rating, CYPIR [2, 14] | herbicidal effect rating, MOOVA [4, 24] | herbicidal effect rating, MOOVA [4, 13] | herbicidal effect rating, MOOVA [4, 14]
5.5: herbicidal effect rating, SAGPY [5, 13]
5.0: herbicidal effect rating, ECHORC [1, 24] | herbicidal effect rating, CYPSE [3, 13]
6.5: herbicidal effect rating, ECHORC [1, 13] | herbicidal effect rating, CYPIR [2, 23] | herbicidal effect rating, CYPSE [3, 14]

Cn1c(C(F)(F)F)cc(=O)n(-c2ccc3snc(COCC(F)F)c3c2)c1=O [Example 203, 3-{3-[(2,2-Difluoroethoxy)methyl]-1,2-benzisothiazol-5-yl}-1-methyl-6-(trifluoromethyl)-2,4(1H,3H)-pyrimidinedione]
0.0: herbicidal effect rating, ECHORC [1, 25] | herbicidal effect rating, ECHORC [1, 26] | herbicidal effect rating, CYPSE [3, 25] | herbicidal effect rating, CYPSE [3, 26] | herbicidal effect rating, MOOVA [4, 25] | herbicidal effect rating, MOOVA [4, 26] | herbicidal effect rating, SAGPY [5, 25] | herbicidal effect rating, SAGPY [5, 26]
7.0: herbicidal effect rating, ORYSAT (rice tolerance) ([6]; 0.2500 kg/ha, rated three to four weeks after treatment)
8.0: herbicidal effect rating, MOOVA [4, 28]
9.0: herbicidal effect rating, CYPIR [2, 25] | herbicidal effect rating, CYPIR [2, 26] | herbicidal effect rating, CYPIR [2, 27] | herbicidal effect rating, CYPIR [2, 28]
4.0: herbicidal effect rating, ECHORC [1, 28] | herbicidal effect rating, SAGPY [5, 28] | herbicidal effect rating, ORYSAT (rice tolerance) ([6]; 0.0313 kg/ha, rated three to four weeks after treatment)
6.0: herbicidal effect rating, CYPSE [3, 28] | herbicidal effect rating, ORYSAT (rice tolerance) ([6]; 0.0625 kg/ha, rated three to four weeks after treatment) | herbicidal effect rating, ORYSAT (rice tolerance) ([6]; 0.1250 kg/ha, rated three to four weeks after treatment)
2.0: herbicidal effect rating, ECHORC [1, 27] | herbicidal effect rating, CYPSE [3, 27] | herbicidal effect rating, MOOVA [4, 27] | herbicidal effect rating, SAGPY [5, 27]
